In brackets after ≈: the same amount, converted by molar mass. Read-outs that look alike come from different tables or passages of the source.
Key:
[1] = Solubility test, equilibrium method, UV-visible spectrophotometry; assay type: physicochemical; details: thermodynamic from solid
Procedure: The solubility test is carried out by equilibrium method. […] An appropriate amount of the compound is weighed and dissolved in 1 mL of methanol solution to prepare a control solution with a certain concentration (C0). The concentration of test solution is calculated according to the following formula: Cx=(Ax/A0)C0, wherein Cx is concentration of test solution, Ax is absorbance of test solution, C0 is concentration of control solution, and A0 is absorbance of control solution.

SW-480 = assay: Cytotoxicity test (MTT, 72 h); details: Homo sapiens, SW480, 72 h, read-out: 50% Inhibiting Concentration value (IC50)
Procedure: (§1) Cells at logarithmic growth period are inoculated in a 96-well plate overnight, then drugs with a certain gradient concentrations are added, and incubation is carried out in a cell culture chamber (5% CO2, 37° C.) for 72 h.

HT-29 = assay: Cytotoxicity test (MTT, 72 h); details: Homo sapiens, HT-29, 72 h, read-out: 50% Inhibiting Concentration value (IC50)
Procedure: as §1

HCT-116 = assay: Cytotoxicity test (MTT, 72 h); details: Homo sapiens, HCT-116, 72 h, read-out: 50% Inhibiting Concentration value (IC50)
Procedure: (§2) In order to investigate the antitumor activities of the compounds, a variety of tumor cell lines for test are selected. Cells at logarithmic growth period are inoculated in a 96-well plate overnight, then drugs with a certain gradient concentrations are added, and incubation is carried out in a cell culture chamber (5% CO2, 37° C.) for 72 h.

A549 = assay: Cytotoxicity test (MTT, 72 h); details: Homo sapiens, A549, 72 h, read-out: 50% Inhibiting Concentration value (IC50)
Procedure: as §2

H1975 = assay: Cytotoxicity test (MTT, 72 h); details: Homo sapiens, NCI-H1975, 72 h, read-out: 50% Inhibiting Concentration value (IC50)
Procedure: as §2

HepG2 = assay: Cytotoxicity test (MTT, 72 h); details: Homo sapiens, HepG2, 72 h, read-out: 50% Inhibiting Concentration value (IC50)
Procedure: as §2

BGC-823 = assay: Cytotoxicity test (MTT, 72 h); details: Homo sapiens, BGC-823, 72 h, read-out: 50% Inhibiting Concentration value (IC50)
Procedure: as §2

ECA-109 = assay: Cytotoxicity test (MTT, 72 h); details: Homo sapiens, ECa-109, 72 h, read-out: 50% Inhibiting Concentration value (IC50)
Procedure: as §2

K562 = assay: Cytotoxicity test (MTT, 72 h); details: Homo sapiens, K562, 72 h, read-out: 50% Inhibiting Concentration value (IC50)
Procedure: as §2

PC3 = assay: Cytotoxicity test (MTT, 72 h); details: Homo sapiens, PC-3, 72 h, read-out: 50% Inhibiting Concentration value (IC50)
Procedure: as §2

143B = assay: Cytotoxicity test (MTT, 72 h); details: Homo sapiens, read-out: 50% Inhibiting Concentration value (IC50)
Procedure: as §2

MDA-MB-231 = assay: Cytotoxicity test (MTT, 72 h); details: Homo sapiens, MDA-MB-231, 72 h, read-out: 50% Inhibiting Concentration value (IC50)
Procedure: as §2

Hela = assay: Cytotoxicity test (MTT, 72 h); details: Homo sapiens, read-out: 50% Inhibiting Concentration value (IC50)
Procedure: as §2

TPC-1 = assay: Cytotoxicity test (MTT, 72 h); details: Homo sapiens, TPC1, 72 h, read-out: 50% Inhibiting Concentration value (IC50)
Procedure: as §1

SKOV-3 = assay: Cytotoxicity test (MTT, 72 h); details: Homo sapiens, SK-OV-3, 72 h, read-out: 50% Inhibiting Concentration value (IC50)
Procedure: as §1

PANC-1 = assay: Cytotoxicity test (MTT, 72 h); details: Homo sapiens, PANC-1, 72 h, read-out: 50% Inhibiting Concentration value (IC50)
Procedure: as §1

[2] = aqueous with cosolvent or surfactant or cyclodextrin
[3] = aqueous buffer, PBS pH 7.4, read-out: Solubility in PBS (pH = 7.4)
[4] = aqueous with cosolvent or surfactant or cyclodextrin, 0.1% aqueous solution of Tween-80, read-out: Solubility in 0.1% Tween-80
[5] = saline or isotonic, normal saline, read-out: Solubility in Normal Saline (NS)
[6] = water, read-out: Solubility in Water

| SMILES | solubility [1, 2] | solubility ([1]; pH 7.4, aqueous buffer) | solubility ([1]; saline or isotonic) | solubility ([1]; water) | IC50 (SW-480) | IC50 (HT-29) | IC50 (HCT-116) | IC50 (A549) | IC50 (H1975) | IC50 (HepG2) | IC50 (BGC-823) | IC50 (ECA-109) | IC50 (K562) | IC50 (PC3) | IC50 (143B) | IC50 (MDA-MB-231) | IC50 (Hela) | IC50 (TPC-1) | IC50 (SKOV-3) | IC50 (PANC-1) | other results |
| --- | --- | --- | --- | --- | --- | --- | --- | --- | --- | --- | --- | --- | --- | --- | --- | --- | --- | --- | --- | --- | --- |
| CCc1c2c(nc3ccc(OC(=O)OCCOCCOCCOCCOCc4cn([C@H]5O[C@@H](CO)[C@H](O)[C@@H](O)[C@@H]5O)nn4)cc13)-c1cc3c(c(=O)n1C2)COC(=O)[C@]3(O)CC [Compound 42] | 120 µg/mL (≈ 140 µM) | 85.2 µg/mL (≈ 99.6 µM) | 5870 µg/mL (≈ 6860 µM) | 162 µg/mL (≈ 189 µM) | 0.167 µM | 13.5 µM | 3.01 µM | 5.73 µM | 12.8 µM | 0.174 µM | 0.139 µM | 11.3 µM | 2.5 µM | 4.77 µM | 10.6 µM | 0.145 µM | 6.87 µM | 15.3 µM | 0.209 µM | 6.87 µM | – |
| CCc1c2c(nc3ccc(OC(=O)OCCOCc4cn(CCO[C@H]5O[C@@H](CO)[C@H](O)[C@@H](O)[C@@H]5O)nn4)cc13)-c1cc3c(c(=O)n1C2)COC(=O)[C@]3(O)CC [Compound 56] | 2180 µg/mL (≈ 2830 µM) | 85.2 µg/mL (≈ 111 µM) | 1110 µg/mL (≈ 1440 µM) | 636 µg/mL (≈ 828 µM) | 0.112 µM | 9.39 µM | 0.137 µM | 4.7 µM | 8.25 µM | 10.2 µM | 0.093 µM | 7.83 µM | 0.114 µM | 3.91 µM | 6.88 µM | 8.53 µM | 5.63 µM | 9.9 µM | 12.3 µM | 5.63 µM | – |
| CCc1c2c(nc3ccc(OC(=O)NCCCCCOCc4cn(CCO[C@H]5O[C@@H](CO)[C@H](O)[C@@H](O)[C@@H]5O)nn4)cc13)-c1cc3c(c(=O)n1C2)COC(=O)[C@]3(O)CC [Compound 88] | – | – | – | – | 0.865 µM | 9.1 µM | 2.73 µM | 9.13 µM | 6.98 µM | 6.22 µM | 0.721 µM | 7.58 µM | 2.27 µM | 7.61 µM | 5.82 µM | 5.18 µM | 11 µM | 8.38 µM | 7.46 µM | 11 µM | solubility [1, 3]: 895 µg/mL (≈ 1110 µM); solubility [1, 4]: 1350 µg/mL (≈ 1670 µM); solubility [1, 5]: 870 µg/mL (≈ 1080 µM); solubility [1, 6]: 1130 µg/mL (≈ 1390 µM) |
| CCc1c2c(nc3ccc(OC(=O)NCCOCc4cn([C@H]5O[C@@H](CO)[C@H](O)[C@@H](O)[C@@H]5O)nn4)cc13)-c1cc3c(c(=O)n1C2)COC(=O)[C@]3(O)CC [Compound 66] | – | – | – | – | 0.216 µM | 5.11 µM | 0.843 µM | 5.65 µM | 8.46 µM | 1.62 µM | 0.18 µM | 4.26 µM | 0.703 µM | 4.71 µM | 7.05 µM | 1.35 µM | 6.78 µM | 10.2 µM | 1.95 µM | 6.78 µM | solubility [1, 3]: 2880 µg/mL (≈ 3980 µM); solubility [1, 4]: 1140 µg/mL (≈ 1580 µM); solubility [1, 5]: 1590 µg/mL (≈ 2210 µM); solubility [1, 6]: 979 µg/mL (≈ 1350 µM) |
| CCc1c2c(nc3ccc(OC(=O)OCCOCCOCc4cn([C@H]5O[C@@H](CO)[C@H](O)[C@@H](O)[C@@H]5O)nn4)cc13)-c1cc3c(c(=O)n1C2)COC(=O)[C@]3(O)CC [Compound 47] | 650 µg/mL (≈ 846 µM) | 60.8 µg/mL (≈ 79.2 µM) | 511 µg/mL (≈ 665 µM) | 109 µg/mL (≈ 142 µM) | 0.274 µM | 0.694 µM | 0.273 µM | 2.95 µM | 10.8 µM | 2.74 µM | 0.228 µM | 0.578 µM | 0.228 µM | 2.46 µM | 8.96 µM | 2.28 µM | 3.54 µM | 12.9 µM | 3.29 µM | 3.54 µM | – |
| CCc1c2c(nc3ccc(OC(=O)OCCOCCOCCOCc4cn([C@H]5O[C@@H](CO)[C@H](O)[C@@H](O)[C@@H]5O)nn4)cc13)-c1cc3c(c(=O)n1C2)COC(=O)[C@]3(O)CC [Compound 52] | 320 µg/mL (≈ 394 µM) | 85.2 µg/mL (≈ 105 µM) | 446 µg/mL (≈ 549 µM) | 3050 µg/mL (≈ 3750 µM) | 0.167 µM | 0.859 µM | 0.527 µM | 11.1 µM | 21.8 µM | 8.22 µM | 0.139 µM | 0.716 µM | 0.439 µM | 9.26 µM | 18.1 µM | 6.85 µM | 13.3 µM | 26.1 µM | 9.86 µM | 13.3 µM | – |
| CCc1c2c(nc3ccc(OC(=O)OCCOCCOCc4cn(CCO[C@H]5O[C@@H](CO)[C@H](O)[C@@H](O)[C@@H]5O)nn4)cc13)-c1cc3c(c(=O)n1C2)COC(=O)[C@]3(O)CC [Compound 57] | 6460 µg/mL (≈ 7950 µM) | 361 µg/mL (≈ 444 µM) | 4290 µg/mL (≈ 5290 µM) | 178 µg/mL (≈ 219 µM) | 0.164 µM | 1.68 µM | 1.39 µM | 20.9 µM | 12.1 µM | 5.15 µM | 0.137 µM | 1.4 µM | 1.16 µM | 17.4 µM | 10.1 µM | 4.29 µM | 15.1 µM | 14.6 µM | 6.17 µM | 22.1 µM | – |
| CCc1c2c(nc3ccc(OC(=O)OCCOCc4cn([C@H]5O[C@@H](CO)[C@H](O)[C@@H](O)[C@@H]5O)nn4)cc13)-c1cc3c(c(=O)n1C2)COC(=O)[C@]3(O)CC [Compound 37] | 360 µg/mL (≈ 497 µM) | 54.4 µg/mL (≈ 75.2 µM) | 725 µg/mL (≈ 1000 µM) | 159 µg/mL (≈ 220 µM) | 0.014 µM | 1.94 µM | 2.34 µM | 13.1 µM | 21.1 µM | 2.19 µM | 1.25 µM | 1.62 µM | 1.95 µM | 10.9 µM | 17.6 µM | 1.82 µM | 12.7 µM | 18.3 µM | 2.63 µM | 13.7 µM | – |
| CCc1c2c(nc3ccc(OC(=O)NCCCOCc4cn(CCO[C@H]5O[C@@H](CO)[C@H](O)[C@@H](O)[C@@H]5O)nn4)cc13)-c1cc3c(c(=O)n1C2)COC(=O)[C@]3(O)CC [Compound 81] | – | – | – | – | 0.851 µM | 9.42 µM | 7.24 µM | 8.32 µM | 9.68 µM | 6.25 µM | 0.709 µM | 7.85 µM | 6.03 µM | 6.93 µM | 8.06 µM | 5.21 µM | 9.98 µM | 11.6 µM | 7.5 µM | 9.98 µM | solubility [1, 3]: 895 µg/mL (≈ 1150 µM); solubility [1, 4]: 1210 µg/mL (≈ 1550 µM); solubility [1, 5]: 985 µg/mL (≈ 1260 µM); solubility [1, 6]: 985 µg/mL (≈ 1260 µM) |
| CCc1c2c(nc3ccc(OC(=O)NCCCCCOCc4cn([C@H]5O[C@@H](CO)[C@H](O)[C@@H](O)[C@@H]5O)nn4)cc13)-c1cc3c(c(=O)n1C2)COC(=O)[C@]3(O)CC [Compound 87] | – | – | – | – | 1.15 µM | 7.36 µM | 1.52 µM | 6.35 µM | 5.12 µM | 7.35 µM | 0.96 µM | 6.14 µM | 1.27 µM | 5.29 µM | 4.27 µM | 6.12 µM | 7.62 µM | 6.15 µM | 8.82 µM | 7.62 µM | solubility [1, 3]: 910 µg/mL (≈ 1190 µM); solubility [1, 4]: 1110 µg/mL (≈ 1450 µM); solubility [1, 5]: 894 µg/mL (≈ 1170 µM); solubility [1, 6]: 1050 µg/mL (≈ 1370 µM) |

Source: patent US20210246157A1, “CAMPTOTHECIN DERIVATIVES AND PREPARATION METHODS AND APPLICATIONS THEREOF” (priority 2018, published 2021)
